SMILES strings stand for the structures.

What all share (assay): Kinobeads competition binding with immobilized CZC25342, mixed HeLa placenta lysates (Example 5, Table 7)
Assay [1] deals with T1, kinases from mixed HeLa placenta lysates (Homo sapiens, UniProt Q9NSY1).
T1 construct: capturing and identification of kinases from mixed HeLa placenta lysates; endogenous in cells; host or cells: mixed lysate of HeLa cells and placenta tissue
The following applies: kinase BIKE; 10 μM free compound; HeLa Placenta lysate mix. The protocol: (§1) To one aliquot of cell lysate 10 μM of the free compound (FIG. 2, CZC25342) was added and allowed to bind to proteins in the lysate. Then the affinity matrix with the immobilized compound was added to capture proteins that were not interacting with the previously added free compound. Beads were separated from the lysate and bead bound proteins were eluted in SDS sample buffer and subsequently separated by SDS-Polyacrylamide gel electrophoresis (FIG. 11). Suitable gel bands were cut out and subjected to in-gel proteolytic digestion with trypsin. The second lysate aliquot was processed identically, however no free compound was added (DMSO solvent control). Peptides originating from samples 1 and 2 were labeled with iTRAQ reagents (iTRAQ 114 and iTRAQ 117) and the combined samples were analyzed with a nano-flow liquid chromatography system coupled online to a tandem mass spectrometer (LC-MS/MS) experiment followed by iTRAQ reporter ion quantification in the MS/MS spectra as described in Example 2. The identified kinases are shown in Table 7 including the percent competition values for the sample to which 10 μM free compound had been added. In total of 83 different kinases were identified and competed by different degrees.

The target of assay [2] is T2, kinases from mixed HeLa placenta lysates (Homo sapiens, UniProt Q14164).
T2 construct: capturing and identification of kinases from mixed HeLa placenta lysates; endogenous in cells; host or cells: mixed lysate of HeLa cells and placenta tissue
The following applies: kinase IKKe; 10 μM free compound; HeLa Placenta lysate mix. The protocol:
as §1

Assay [3] concerns the target T3, kinases from mixed HeLa placenta lysates (Homo sapiens, UniProt P51812).
T3 construct: capturing and identification of kinases from mixed HeLa placenta lysates; endogenous in cells; host or cells: mixed lysate of HeLa cells and placenta tissue
The note with it: kinase RSK2; 10 μM free compound; HeLa Placenta lysate mix. The protocol: as §1

The target of assay [4] is T4, kinases from mixed HeLa placenta lysates (Homo sapiens, UniProt Q9Y616).
T4 construct: capturing and identification of kinases from mixed HeLa placenta lysates; endogenous in cells; host or cells: mixed lysate of HeLa cells and placenta tissue
The following applies: kinase IRAK3; 10 μM free compound; HeLa Placenta lysate mix. The protocol: as §1

Assay [5] concerns the target T5, kinases from mixed HeLa placenta lysates (Homo sapiens, UniProt P51956).
T5 construct: capturing and identification of kinases from mixed HeLa placenta lysates; endogenous in cells; host or cells: mixed lysate of HeLa cells and placenta tissue
The following applies: kinase NEK3; 10 μM free compound; HeLa Placenta lysate mix. The protocol: as §1

The target in assay [6] is T6, kinases from mixed HeLa placenta lysates (Homo sapiens, UniProt Q9NWZ3).
T6 construct: capturing and identification of kinases from mixed HeLa placenta lysates; endogenous in cells; host or cells: mixed lysate of HeLa cells and placenta tissue
The note with it: kinase IRAK4; 10 μM free compound; HeLa Placenta lysate mix. The protocol:
as §1

For assay [7], the target named is T7, kinases from mixed HeLa placenta lysates (Homo sapiens, UniProt P07947).
T7 construct: capturing and identification of kinases from mixed HeLa placenta lysates; endogenous in cells; host or cells: mixed lysate of HeLa cells and placenta tissue
The following applies: kinase YES; 10 μM free compound; HeLa Placenta lysate mix. The protocol:
as §1

Assay [8] has as its target T8, kinases from mixed HeLa placenta lysates (Homo sapiens, UniProt Q7KZI7).
T8 construct: capturing and identification of kinases from mixed HeLa placenta lysates; endogenous in cells; host or cells: mixed lysate of HeLa cells and placenta tissue
The note with it: kinase MARK2; 10 μM free compound; HeLa Placenta lysate mix. The protocol: as §1

The target in assay [9] is T9, kinases from mixed HeLa placenta lysates (Homo sapiens, UniProt P53350).
T9 construct: capturing and identification of kinases from mixed HeLa placenta lysates; endogenous in cells; host or cells: mixed lysate of HeLa cells and placenta tissue
The note with it: kinase PLK1; 10 μM free compound; HeLa Placenta lysate mix. The protocol: as §1

Assay [10] concerns the target T10, kinases from mixed HeLa placenta lysates (Homo sapiens, UniProt P35916).
T10 construct: capturing and identification of kinases from mixed HeLa placenta lysates; endogenous in cells; host or cells: mixed lysate of HeLa cells and placenta tissue
The note with it: kinase FLT4; 10 μM free compound; HeLa Placenta lysate mix. The protocol: as §1

The target in assay [11] is T11, kinases from mixed HeLa placenta lysates (Homo sapiens, UniProt P36894).
T11 construct: capturing and identification of kinases from mixed HeLa placenta lysates; endogenous in cells; host or cells: mixed lysate of HeLa cells and placenta tissue
The note with it: kinase BMPR1A; 10 μM free compound; HeLa Placenta lysate mix. The protocol: as §1

In assay [12] the target is T12, kinases from mixed HeLa placenta lysates (Homo sapiens, UniProt Q9UHD2).
T12 construct: capturing and identification of kinases from mixed HeLa placenta lysates; endogenous in cells; host or cells: mixed lysate of HeLa cells and placenta tissue
The following applies: kinase TBK1; 10 μM free compound; HeLa Placenta lysate mix. The protocol: as §1

Assay [13] has as its target T13, kinases from mixed HeLa placenta lysates (Homo sapiens, UniProt Q8TBX8).
T13 construct: capturing and identification of kinases from mixed HeLa placenta lysates; endogenous in cells; host or cells: mixed lysate of HeLa cells and placenta tissue
The note with it: kinase PIP5K2C; 10 μM free compound; HeLa Placenta lysate mix. The protocol:
as §1

Assay [14] deals with T14, kinases from mixed HeLa placenta lysates (Homo sapiens, UniProt O43318).
T14 construct: capturing and identification of kinases from mixed HeLa placenta lysates; endogenous in cells; host or cells: mixed lysate of HeLa cells and placenta tissue
The following applies: kinase MAP3K7; 10 μM free compound; HeLa Placenta lysate mix. The protocol:
as §1

In assay [15] the target is T15, kinases from mixed HeLa placenta lysates (Homo sapiens, UniProt Q9H2G2).
T15 construct: capturing and identification of kinases from mixed HeLa placenta lysates; endogenous in cells; host or cells: mixed lysate of HeLa cells and placenta tissue
The following applies: kinase SLK; 10 μM free compound; HeLa Placenta lysate mix. The protocol:
as §1

Assay [16] has as its target T16, kinases from mixed HeLa placenta lysates (Homo sapiens, UniProt Q02763).
T16 construct: capturing and identification of kinases from mixed HeLa placenta lysates; endogenous in cells; host or cells: mixed lysate of HeLa cells and placenta tissue
The following applies: kinase TIE2; 10 μM free compound; HeLa Placenta lysate mix. The protocol:
as §1

The target of assay [17] is T17, kinases from mixed HeLa placenta lysates (Homo sapiens, UniProt O43353).
T17 construct: capturing and identification of kinases from mixed HeLa placenta lysates; endogenous in cells; host or cells: mixed lysate of HeLa cells and placenta tissue
The note with it: kinase RIPK2; 10 μM free compound; HeLa Placenta lysate mix. The protocol:
as §1

In assay [18] the target is T18, kinases from mixed HeLa placenta lysates (Homo sapiens, UniProt O14976).
T18 construct: capturing and identification of kinases from mixed HeLa placenta lysates; endogenous in cells; host or cells: mixed lysate of HeLa cells and placenta tissue
The note with it: kinase GAK; 10 μM free compound; HeLa Placenta lysate mix. The protocol:
as §1

The target of assay [19] is T19, kinases from mixed HeLa placenta lysates (Homo sapiens, UniProt Q2M2I8).
T19 construct: capturing and identification of kinases from mixed HeLa placenta lysates; endogenous in cells; host or cells: mixed lysate of HeLa cells and placenta tissue
The note with it: kinase AAK1; 10 μM free compound; HeLa Placenta lysate mix. The protocol:
as §1

Assay [20] addresses T20, kinases from mixed HeLa placenta lysates (Homo sapiens, UniProt P35968).
T20 construct: capturing and identification of kinases from mixed HeLa placenta lysates; endogenous in cells; host or cells: mixed lysate of HeLa cells and placenta tissue
The following applies: kinase KDR; 10 μM free compound; HeLa Placenta lysate mix. The protocol:
as §1

In assay [21] the target is T21, kinases from mixed HeLa placenta lysates (Homo sapiens, UniProt Q99683).
T21 construct: capturing and identification of kinases from mixed HeLa placenta lysates; endogenous in cells; host or cells: mixed lysate of HeLa cells and placenta tissue
The following applies: kinase MAP3K5; 10 μM free compound; HeLa Placenta lysate mix. The protocol: as §1

In assay [22] the target is T22, kinases from mixed HeLa placenta lysates (Homo sapiens, UniProt Q05397).
T22 construct: capturing and identification of kinases from mixed HeLa placenta lysates; endogenous in cells; host or cells: mixed lysate of HeLa cells and placenta tissue
The following applies: kinase FAK; 10 μM free compound; HeLa Placenta lysate mix. The protocol: as §1

Assay [23] addresses T23, kinases from mixed HeLa placenta lysates (Homo sapiens, UniProt Q00535).
T23 construct: capturing and identification of kinases from mixed HeLa placenta lysates; endogenous in cells; host or cells: mixed lysate of HeLa cells and placenta tissue
The note with it: kinase CDK5; 10 μM free compound; HeLa Placenta lysate mix. The protocol:
as §1

Assay [24] addresses T24, kinases from mixed HeLa placenta lysates (Homo sapiens, UniProt Q9Y2U5).
T24 construct: capturing and identification of kinases from mixed HeLa placenta lysates; endogenous in cells; host or cells: mixed lysate of HeLa cells and placenta tissue
The note with it: kinase MAP3K2; 10 μM free compound; HeLa Placenta lysate mix. The protocol: as §1

T24 sequence (Q9Y2U5 whole entry): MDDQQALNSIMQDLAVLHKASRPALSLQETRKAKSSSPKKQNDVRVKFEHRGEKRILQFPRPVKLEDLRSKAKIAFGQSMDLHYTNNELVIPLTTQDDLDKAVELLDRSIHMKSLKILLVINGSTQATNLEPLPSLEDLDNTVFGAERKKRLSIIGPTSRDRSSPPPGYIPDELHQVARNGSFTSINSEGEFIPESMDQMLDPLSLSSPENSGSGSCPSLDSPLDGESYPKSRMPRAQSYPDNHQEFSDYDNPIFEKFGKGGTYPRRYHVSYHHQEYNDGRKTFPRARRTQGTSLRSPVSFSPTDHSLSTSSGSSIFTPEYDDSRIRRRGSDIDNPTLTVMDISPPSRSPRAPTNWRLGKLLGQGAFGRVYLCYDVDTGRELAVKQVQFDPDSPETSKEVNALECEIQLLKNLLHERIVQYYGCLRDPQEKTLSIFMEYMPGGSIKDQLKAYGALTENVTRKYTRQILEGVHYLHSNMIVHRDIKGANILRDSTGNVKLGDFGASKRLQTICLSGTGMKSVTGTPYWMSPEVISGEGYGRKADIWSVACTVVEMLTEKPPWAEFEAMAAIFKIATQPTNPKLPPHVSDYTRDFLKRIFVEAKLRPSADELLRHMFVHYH
T1 sequence (Q9NSY1 whole entry): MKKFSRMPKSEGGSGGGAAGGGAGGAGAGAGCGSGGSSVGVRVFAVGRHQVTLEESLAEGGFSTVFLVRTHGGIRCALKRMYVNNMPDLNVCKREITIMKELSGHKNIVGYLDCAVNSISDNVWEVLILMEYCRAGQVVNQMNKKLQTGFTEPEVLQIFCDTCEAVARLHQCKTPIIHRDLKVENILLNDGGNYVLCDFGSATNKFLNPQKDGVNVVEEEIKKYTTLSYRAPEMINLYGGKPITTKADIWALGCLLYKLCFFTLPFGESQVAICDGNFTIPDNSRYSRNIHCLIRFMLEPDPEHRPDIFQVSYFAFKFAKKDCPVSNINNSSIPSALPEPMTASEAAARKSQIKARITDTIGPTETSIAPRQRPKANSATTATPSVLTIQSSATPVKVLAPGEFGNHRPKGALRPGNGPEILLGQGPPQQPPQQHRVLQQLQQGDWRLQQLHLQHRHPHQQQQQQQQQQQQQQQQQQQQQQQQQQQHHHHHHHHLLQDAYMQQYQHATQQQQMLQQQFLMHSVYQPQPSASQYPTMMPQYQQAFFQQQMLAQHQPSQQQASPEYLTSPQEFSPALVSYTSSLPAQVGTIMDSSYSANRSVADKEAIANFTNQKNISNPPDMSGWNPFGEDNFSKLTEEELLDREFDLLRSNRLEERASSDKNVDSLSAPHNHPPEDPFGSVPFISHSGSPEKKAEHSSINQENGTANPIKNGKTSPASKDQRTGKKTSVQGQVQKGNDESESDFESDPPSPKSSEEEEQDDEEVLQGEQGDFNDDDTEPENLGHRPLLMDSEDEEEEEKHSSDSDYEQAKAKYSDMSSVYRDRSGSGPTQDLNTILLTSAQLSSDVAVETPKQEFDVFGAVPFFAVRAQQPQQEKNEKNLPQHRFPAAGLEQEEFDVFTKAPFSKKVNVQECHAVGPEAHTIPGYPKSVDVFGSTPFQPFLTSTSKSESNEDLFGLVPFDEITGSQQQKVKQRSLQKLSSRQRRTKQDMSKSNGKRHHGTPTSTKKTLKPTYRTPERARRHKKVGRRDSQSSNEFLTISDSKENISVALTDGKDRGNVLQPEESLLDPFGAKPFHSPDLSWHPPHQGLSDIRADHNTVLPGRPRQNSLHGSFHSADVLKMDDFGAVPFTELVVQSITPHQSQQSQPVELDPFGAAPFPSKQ
T9 sequence (P53350 whole entry): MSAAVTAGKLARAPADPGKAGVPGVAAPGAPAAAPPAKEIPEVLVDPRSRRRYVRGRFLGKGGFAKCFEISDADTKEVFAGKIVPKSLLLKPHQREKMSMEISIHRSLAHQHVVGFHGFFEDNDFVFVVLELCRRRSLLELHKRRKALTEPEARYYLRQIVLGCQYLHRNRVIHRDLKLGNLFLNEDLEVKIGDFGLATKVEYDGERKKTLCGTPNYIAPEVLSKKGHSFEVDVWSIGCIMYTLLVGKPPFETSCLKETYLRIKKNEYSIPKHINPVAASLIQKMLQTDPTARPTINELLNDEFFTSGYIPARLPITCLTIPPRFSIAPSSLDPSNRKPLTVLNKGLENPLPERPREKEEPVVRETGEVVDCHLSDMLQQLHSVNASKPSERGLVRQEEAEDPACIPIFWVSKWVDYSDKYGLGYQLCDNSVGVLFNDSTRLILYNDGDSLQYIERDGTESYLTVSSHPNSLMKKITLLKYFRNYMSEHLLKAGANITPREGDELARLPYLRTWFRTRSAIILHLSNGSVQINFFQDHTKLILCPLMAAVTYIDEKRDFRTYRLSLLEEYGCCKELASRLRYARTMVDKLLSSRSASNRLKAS
T6 sequence (Q9NWZ3 whole entry): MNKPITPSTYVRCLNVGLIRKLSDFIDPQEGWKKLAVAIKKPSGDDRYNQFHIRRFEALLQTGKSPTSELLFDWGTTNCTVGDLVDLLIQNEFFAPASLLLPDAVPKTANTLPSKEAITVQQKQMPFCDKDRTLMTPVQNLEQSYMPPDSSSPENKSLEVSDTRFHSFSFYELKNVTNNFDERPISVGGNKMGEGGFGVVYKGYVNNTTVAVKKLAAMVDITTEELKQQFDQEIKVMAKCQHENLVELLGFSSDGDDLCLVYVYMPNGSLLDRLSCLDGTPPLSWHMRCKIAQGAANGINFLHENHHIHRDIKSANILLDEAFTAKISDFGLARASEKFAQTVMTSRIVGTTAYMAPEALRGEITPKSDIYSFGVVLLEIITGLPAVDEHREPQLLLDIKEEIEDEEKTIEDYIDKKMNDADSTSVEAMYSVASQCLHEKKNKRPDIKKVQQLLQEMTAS
T12 sequence (Q9UHD2 whole entry): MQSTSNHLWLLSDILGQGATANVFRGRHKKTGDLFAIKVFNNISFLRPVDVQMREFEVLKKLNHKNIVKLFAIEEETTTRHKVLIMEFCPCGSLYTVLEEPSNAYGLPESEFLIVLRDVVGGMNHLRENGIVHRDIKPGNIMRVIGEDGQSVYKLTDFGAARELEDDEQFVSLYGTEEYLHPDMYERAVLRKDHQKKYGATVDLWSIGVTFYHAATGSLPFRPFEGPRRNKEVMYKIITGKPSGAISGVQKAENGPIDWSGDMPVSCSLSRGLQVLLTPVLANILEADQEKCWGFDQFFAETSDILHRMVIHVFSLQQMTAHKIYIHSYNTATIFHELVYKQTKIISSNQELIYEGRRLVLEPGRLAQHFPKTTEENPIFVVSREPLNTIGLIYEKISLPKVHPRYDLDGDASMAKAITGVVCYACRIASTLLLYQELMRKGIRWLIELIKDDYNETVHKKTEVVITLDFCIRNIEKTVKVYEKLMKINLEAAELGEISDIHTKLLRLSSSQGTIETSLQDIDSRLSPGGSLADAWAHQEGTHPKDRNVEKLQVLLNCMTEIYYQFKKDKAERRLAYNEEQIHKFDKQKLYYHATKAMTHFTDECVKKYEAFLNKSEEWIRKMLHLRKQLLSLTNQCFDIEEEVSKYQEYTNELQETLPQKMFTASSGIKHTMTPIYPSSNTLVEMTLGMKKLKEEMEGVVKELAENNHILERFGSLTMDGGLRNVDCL
T16 sequence (Q02763 23-1124): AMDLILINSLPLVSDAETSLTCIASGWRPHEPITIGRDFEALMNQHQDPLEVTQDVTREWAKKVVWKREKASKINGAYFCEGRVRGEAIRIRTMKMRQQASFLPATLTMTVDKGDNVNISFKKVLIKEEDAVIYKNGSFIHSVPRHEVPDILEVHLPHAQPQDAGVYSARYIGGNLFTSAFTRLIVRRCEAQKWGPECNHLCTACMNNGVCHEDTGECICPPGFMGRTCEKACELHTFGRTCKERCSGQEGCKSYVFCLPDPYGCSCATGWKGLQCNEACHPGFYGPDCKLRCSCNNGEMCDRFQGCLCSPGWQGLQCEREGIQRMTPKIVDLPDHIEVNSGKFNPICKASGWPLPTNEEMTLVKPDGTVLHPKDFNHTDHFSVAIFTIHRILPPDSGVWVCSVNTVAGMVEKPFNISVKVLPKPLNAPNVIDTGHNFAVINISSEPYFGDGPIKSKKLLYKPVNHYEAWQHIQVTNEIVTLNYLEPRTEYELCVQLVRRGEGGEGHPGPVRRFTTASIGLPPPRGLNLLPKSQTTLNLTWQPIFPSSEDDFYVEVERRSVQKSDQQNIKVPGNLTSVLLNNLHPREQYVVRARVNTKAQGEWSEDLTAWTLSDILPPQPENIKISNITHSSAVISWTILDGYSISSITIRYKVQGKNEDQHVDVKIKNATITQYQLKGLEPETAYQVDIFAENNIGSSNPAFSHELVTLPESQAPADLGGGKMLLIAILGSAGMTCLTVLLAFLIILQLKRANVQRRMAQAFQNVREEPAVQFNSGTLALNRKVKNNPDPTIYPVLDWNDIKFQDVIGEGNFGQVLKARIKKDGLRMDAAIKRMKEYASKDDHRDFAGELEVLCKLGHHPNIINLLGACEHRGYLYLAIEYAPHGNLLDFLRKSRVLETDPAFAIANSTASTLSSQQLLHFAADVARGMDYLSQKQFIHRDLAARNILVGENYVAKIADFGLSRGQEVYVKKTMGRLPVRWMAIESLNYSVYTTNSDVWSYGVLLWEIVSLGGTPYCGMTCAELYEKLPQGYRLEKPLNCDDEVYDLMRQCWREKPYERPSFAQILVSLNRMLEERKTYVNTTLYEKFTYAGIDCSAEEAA
T23 sequence (Q00535 whole entry): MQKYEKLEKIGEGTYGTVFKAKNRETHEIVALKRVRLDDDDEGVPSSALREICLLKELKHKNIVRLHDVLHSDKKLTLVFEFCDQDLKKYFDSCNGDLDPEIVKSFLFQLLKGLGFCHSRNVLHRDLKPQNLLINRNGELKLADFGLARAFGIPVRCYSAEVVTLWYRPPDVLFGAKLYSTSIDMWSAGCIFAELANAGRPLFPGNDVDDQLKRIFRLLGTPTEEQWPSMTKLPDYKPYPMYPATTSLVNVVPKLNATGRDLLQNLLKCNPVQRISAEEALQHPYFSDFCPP

With `CS(=O)(=O)Nc1ccccc1Nc1nc(Nc2cccc(OCCN)c2)ncc1F` [CZC25342, N-(2-(2-(3-(2-aminoethoxy)phenylamino)-5-fluoropyrimidin-4-ylamino)phenyl)methanesulfonamide], in assay [1], the “Competition % BIKE” value is recorded as 94.8%. For the same compound, the “Competition % IKKe” value in assay [2] worked out at 69%. Moreover, the “Competition % RSK2” value in assay [3] stood at 95.6%. In addition, in assay [4], the “Competition % IRAK3” value turned out to be 86.2%. For the same compound, in assay [5], the “Competition % NEK3” value is recorded as 94.8%. The “Competition % IRAK4” value in assay [6] is listed as 95.6%. In addition, in assay [7], the “Competition % YES” value came out at 91.7%. Besides, in assay [8], the “Competition % MARK2” value worked out at 93.4%. Also, the “Competition % PLK1” value in assay [9] came to 94.6%. Also, in assay [10], the “Competition % FLT4” value is listed as 88.2%. Moreover, the “Competition % BMPR1A” value in [11] is reported as 84.1%. The “Competition % TBK1” value in assay [12] is recorded as 88.8%. In addition, the “Competition % PIP5K2C” value in [13] was determined as 97.3%. Besides, the “Competition % MAP3K7” value in assay [14] is listed as 85.8%. Further, the “Competition % SLK” value in [15] was found to be 95.2%. In addition, in assay [16], the “Competition % TIE2” value is given as 91.4%. Further, the “Competition % RIPK2” value in assay [17] turned out to be 94.4%. The “Competition % GAK” value in assay [18] is listed as 95.9%. Further, the “Competition % AAK1” value in assay [19] is listed as 95.6%. In assay [20], the “Competition % KDR” value is 92.5%. In addition, the “Competition % MAP3K5” value in assay [21] was 94.1%. In addition, the “Competition % FAK” value in assay [22] is recorded as 96%. In addition, the “Competition % CDK5” value in [23] is 92.6%. Besides, the “Competition % MAP3K2” value in assay [24] is reported as 94.7%.

The values above are taken from patent US20120270237A9, “METHODS FOR THE IDENTIFICATION OF KINASE INTERACTING MOLECULES AND FOR THE PURIFICATION OF KINASE PROTEINS” (Cellzone AG, priority 2009, published 2012).
